{
  "source": "patent US20170304358A1",
  "about": "“PRIMARY AND SECONDARY PREVENTION OF DEMENTIAS AND SUICIDE WITH TRACE DOSE LITHIUM” (priority 2014, published 2017)",
  "origin": "cited, not measured here",
  "key": {"[1]": {"test_system": "cognition in persons with MCI", "conditions": "micro-doses (<0.28 mg/d of lithium carbonate)"}, "[2]": {"conditions": "standard doses of lithium"}},
  "data": [
    {"smiles": "O=C([O-])[O-].[Li+].[Li+]", "note": "[Lithium carbonate, lithium carbonate]", "values": [
      {"measurement": "benefit for cognition in MCI", "setting": "[1]", "value": "some benefit for cognition"}
    ]},
    {"smiles": "[Li]", "note": "[lithium]", "values": [
      {"measurement": "adverse side effects", "setting": "[2]", "value": "renal toxicity"}
    ]}
  ]
}
